Measurements reported in US20230174484A1, “ANTAGONISTS OF GPR39 PROTEIN” (Oregon Health & Science University, priority 2020, published 2023).
“Also recorded” adds a separate entry of the source.

What was measured:
[1] = tested on: wild-type mice, left coronary artery occlusion/reperfusion; experiment: No reflow after coronary occlusion and reperfusion in mice (Thioflavin S / Evans Blue); assay type: in vivo, mouse; settings: WT mice, 1.5 mg/kg i.v. 15 min after occlusion, 45 min occlusion, 2 hr reperfusion, versus vehicle
Protocol: FIGS. 4A-4D depict no reflow data from WT, GPR39 KO, and EXAMPLE 34 mice. Thioflavin-S and Evans Blue were injected ante-mortem and measurement of no reflow (area without Evans Blue on the right panel). […] EXAMPLE 34 was given 15 min after coronary occlusion which lasted a total of 45 min followed by 2 hour reperfusion. The role of pericytes was examined in no reflow after reperfusion in a separate group of animals since infarct size and no reflow post-mortem cciuid not be measured in the same animals, Thioflavin S, a perfusion marker, was injected into the left coronary artery after reperfusion. Thereafter, the left coronary artery was briefly re-occluded and 0.2 ml Evan's blue (1%) injected. The heart was then excised, transversely sliced into 5-6 pieces and photographed under UV light (under which Thioflavin S fluoresces blue) to identify the area of no reflow and under standard lighting to identify the AAR, and the no reflow zone expressed as a percent of the AAR.

[2] = tested on: spontaneously hypertensive rat (SHR); experiment: Acute intravenous effect on blood pressure in the spontaneously hypertensive rat; assay type: in vivo; settings: for BP reduction, percentage of pre-administration baseline: lowest value over 10 min, isoflurane anaesthesia
Protocol: Decrease in BP was expressed as a percentage of baseline BP (*p<0.05).
The effect of acute intravenous administration of EXAMPLE 34 on BP in the spontaneously hypertensive rat (SHR) was determined. […] At 10 mg/kg, BP was reduced by 15%, and at 25 mg/kg, the reduction exceeded 20% of pre-administration baseline. EXAMPLE 34 was administered slowly via bolus injections through the jugular vein in a vehicle consisting of 100% PEG 400, and the change in BP after administration (lowest value over 10 min) was normalized to pre-administration baseline. This was the first proof of principle that pharmacological inhibition of GPR39 reduced BP acutely in a well-established animal model of hypertension.

human GPR39 receptor = biological target: T1, human GPR39 receptor (Homo sapiens, UniProt O43194); experiment: Measurement of intracellular calcium response in PC3 cells (FLIPR), antagonism of the C3 agonist response; assay type: cell-based; settings: functional pKi (modified Cheng-Prusoff), inhibition of the C3 (TC-G 1008) response at EC90, 30 μM ZnCl2, read-out: fpKi activity
T1 construct: PC3 Cells, Expressing the Endogenous Human GPR39 Receptor; endogenous in cells; host or cells: PC3 (human prostate adenocarcinoma) cells
T1 sequence (O43194 1-453): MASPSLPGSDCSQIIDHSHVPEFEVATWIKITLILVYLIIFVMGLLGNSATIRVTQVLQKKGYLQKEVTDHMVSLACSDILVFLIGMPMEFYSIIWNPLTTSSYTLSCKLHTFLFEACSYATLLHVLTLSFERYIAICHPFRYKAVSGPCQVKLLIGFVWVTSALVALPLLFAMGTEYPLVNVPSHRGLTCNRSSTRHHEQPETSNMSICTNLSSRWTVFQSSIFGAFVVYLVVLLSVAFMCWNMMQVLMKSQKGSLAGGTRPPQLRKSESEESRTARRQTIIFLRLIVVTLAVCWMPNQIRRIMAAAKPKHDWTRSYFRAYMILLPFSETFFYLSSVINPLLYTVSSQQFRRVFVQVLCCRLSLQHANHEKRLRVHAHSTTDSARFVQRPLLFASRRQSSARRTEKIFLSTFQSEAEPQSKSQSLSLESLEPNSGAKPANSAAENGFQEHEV
Method in brief: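 Potency was reported as fpKi, converted by modified Cheng-Prusoff from four-parameter IC50 fits against an EC90 C3 agonist challenge. Calcium-6 FLIPR readings used PC3 cells naturally expressing human GPR39, in pH 7.4 HEPES buffer containing 30 μM final ZnCl2. Score bands: +/± <5.2, + 5.2–5.9, ++ 6.0–6.5, +++ 6.6–7.2, ++++ ≥7.3.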

[3] = tested on: wild-type mice, left coronary artery occlusion/reperfusion; experiment: Infarct size after left coronary artery occlusion and reperfusion in mice; assay type: in vivo, mouse; settings: WT mice, single dose 15 min after occlusion, 45 min occlusion, 2 hr reperfusion, versus vehicle
Protocol: FIG. 3A depicts the timeline of experimental design. EXAMPLE 34 was given 15 min after left coronary occlusion as a single dose during a 45 min occlusion followed by 2 hr of reperfusion.
Infarct size in both FIG. 3C and FIG. 3D is expressed as a percent of AAR defined by Evans Blue. Summary data are depicted to the right of actual images from single representative animals.
The role of pericytes in tissue necrosis following coronary occlusion was examined (FIG. 3A).

Row | Ki (human GPR39 receptor) | Compound | also measured
1 | ≤ 0.0501 µM | CN1CCN(C(=O)c2ccc(NC(=O)C3CC3)cc2N2CCC(C(F)(F)F)C2)C(c2ccccc2)C1 (single isomer, unassigned) [Example 199a, (2S, 3R) or (2R, 3S) or (2R, 3R) or (2S, 3S) N-[4-(4-methyl-2-phenylpiperazine-1-carbonyl)-3-[3-(trifluoromethyl)pyrrolidin-1-yl]phenyl]cyclopropanecarboxamide] | –
2 | ≤ 0.0501 µM | CN1CCN(C(=O)c2ccc(NC(=O)C3CC3)cc2N2CCCCCC2)C(c2cccs2)C1 (single isomer, unassigned) [Example 69b, N-(3-(azepan-1-yl)-4-(4-methyl-2-(thiophen-2-yl)piperazine-1-carbonyl)phenyl) cyclopropane carboxamide] | –
3 | ≤ 0.0501 µM | CN1CCN(C(=O)c2ccc(NC(=O)C3CC3)cc2N2CCC(F)(F)C2)C(c2ccccc2)C1 (single isomer, unassigned) [Example 202b, N-[3-(3,3-difluoropyrrolidin-1-yl)-4-(2R or 2S)-4-methyl-2-phenylpiperazine-1-carbonyl)phenyl]cyclopropanecarboxamide] | –

Further lines, the compound ahead of its results:

Row | Compound | Ki (human GPR39 receptor) | also measured
4 | O=C(Nc1ccc(C(=O)N2CCN(c3ncnc4ccsc34)CC2)c(N2CCCCCC2)c1)C1CC1 [EXAMPLE 34, N-[3-(azepan-1-yl)-4-(4-thieno[3,2-d]pyrimidin-4-ylpiperazine-1-carbonyl)phenyl]Cyclopropanecarboxamide] | 1.26 to 6.31 µM | No reflow zone / AAR ratio [1]: negligible no reflow zones; also recorded: significant reduction in no reflow/AAR ratio; BP reduction, percentage of pre-administration baseline ([2]; 10 mg/kg i.v. bolus): 15%; BP reduction, percentage of pre-administration baseline ([2]; 25 mg/kg i.v. bolus): exceeded 20%; Effect on BP in SHR ([2]; i.v., concentrations higher than 10 mg/kg): significantly reduced BP; Infarct size/area at risk (AAR) ratio [3]: significantly smaller; also recorded: significant reduction in infarct size
5 | O=C(Nc1ccc(C(=O)N2CCS(=O)(=O)CC2)c(N2CCCC(F)(F)C2)c1)C1CC1 [Example 191, N-[3-(3,3-difluoropiperidin-1-yl)-4-(1,1-dioxo-1,4-thiazinane-4-carbonyl)phenyl]cyclopropanecarboxamide] | 1.26 to 6.31 µM | –
6 | O=C(Nc1ccc(C(=O)N2CCN(c3ccncc3)CC2)c(N2CCCCCC2)c1)C1CC1 [Example 57, N-[3-(azepan-1-yl)-4-(4-pyridin-4-ylpiperazine-1-carbonyl)phenyl]cyclopropanecarboxamide] | 1.26 to 6.31 µM | –
